# From patent publication US12285012B2, “Compositions comprising pyridine carboxylate herbicides with acetolactate synthase (ALS) inhibitor herbicides” (Corteva Agriscience LLC, priority 2018, dated 2025)
# Like-named read-outs stand apart in the source and are kept apart here.
# How the values were obtained:
# [1] = system: common lambsquarters (CHEAL, Chenopodium album L.); assay: Greenhouse postemergence herbicidal effect; assay type: in vivo
# Procedure: (§1) Seeds of the desired test plant species were planted in a 90:10% v/v (volume/volume) mixture of PRO-MIX® BX (Premier Tech Horticulture, Quakertown, PA, USA) and PROFILE® GREENS GRADE™ (Profile Products LLC, Buffalo Grove, IL, USA) planting mixture, which typically has a pH of 5.2 to 6.2 and an organic matter content of at least 50 percent, in plastic pots with a surface area of 103.2 square centimeters (cm^2). […] The plants were grown for 7-36 days (d) in a greenhouse with an approximate 14-hour (h) photo-period which was maintained at about 23° C. during the day and 22° C. during the night. Nutrients and water were added on a regular basis and supplemental lighting was provided with overhead metal halide 1000-Watt lamps as necessary. The plants were employed for testing when they reached the second or third true leaf stage.
# (§2) Emulsifiable concentrates of each of each pyridine carboxylate herbicide (Compound A or Compound B) were prepared at 100 grams acid equivalent per liter (g ae/L). The emulsifiable concentrates also included a safener, cloquintocet-mexyl, at 120 grams active ingredient per liter (g ai/L), unless otherwise noted below. An aliquot of each emulsifiable concentrate was placed in a 25 mL glass vial and diluted with an aqueous mixture of 1.25% (v/v) ACTIROB® B esterified rapeseed oil (Bayer Crop Science, Research Triangle Park, NC, USA) or MSO® Concentrate with LECI-TECH® methylated soybean oil (Loveland Products, Loveland, CO, USA) to obtain concentrated stock solutions at the highest application rate for each herbicide, based upon a 12 milliliter (mL) application volume at a rate of 187 liters per hectare (L/ha). The concentrated stock solutions were further diluted with an aqueous mixture of 1.25% v/v ACTIROB® B or MSO® Concentrate with LECI-TECH® to obtain stock solutions at reduced application rates for each herbicide. Spray solutions of the herbicide combinations (Compound A or Compound B plus ALS herbicide) were prepared by adding weighed amounts or aliquots of the ALS herbicides to the stock solutions of Compound A or Compound B to form 12-mL spray solutions in two- or three-way combinations.
# (§3) The spray solutions were applied to the plant material with an overhead Mandel track sprayer equipped with 8002E nozzles calibrated to deliver 187 L/ha over an application area of 0.503 square meters (m^2) at a spray height of 18 inches (43 centimeters (cm)) above the average plant canopy. Control plants were sprayed in the same manner with the solvent blank. All pyridine carboxylate herbicide (component a) application rates are given as “g ae/ha” and all ALS inhibitor (component b) application rates are given as “g ai/ha.”
# (§4) The treated plants and control plants were placed in a greenhouse as described above and watered by sub-irrigation to prevent wash-off of the test compounds. After 20-22 d, the condition of the test plants as compared with that of the control plants was determined visually and scored on a scale of 0 to 100 percent where 0 corresponds to no injury and 100 corresponds to complete kill.
# [2] = system: kochia (KCHSC, Kochia scoparia); assay: Greenhouse postemergence herbicidal effect; assay type: in vivo
# Procedure: as §1, §2, §3, §4
# spring barley (HORVS) = assay type: in vivo, Hordeum vulgare
# Procedure: (§5) The plants were grown for 7-36 days (d) in a greenhouse with an approximate 14-hour (h) photo-period which was maintained at about 23° C. during the day and 22° C. during the night. Nutrients and water were added on a regular basis and supplemental lighting was provided with overhead metal halide 1000-Watt lamps as necessary. The plants were employed for testing when they reached the second or third true leaf stage.
# (§6) The emulsifiable concentrates also included a safener, cloquintocet-mexyl, at 120 grams active ingredient per liter (g ai/L), unless otherwise noted below.
# (§7) Control plants were sprayed in the same manner with the solvent blank. All pyridine carboxylate herbicide (component a) application rates are given as “g ae/ha” and all ALS inhibitor (component b) application rates are given as “g ai/ha.”
# as §4
# spring wheat (TRZAS) = assay type: in vivo, Triticum aestivum
# Procedure: as §5, §6, §7, §4
# [3] = system: Russian thistle (SASKR, Salsola kali); assay: Greenhouse postemergence herbicidal effect; assay type: in vivo
# Procedure: as §5, §6, §7, §4
# [4] = system: pigweed (AMARE, Amaranthus retroflexus); assay: Greenhouse postemergence herbicidal effect; assay type: in vivo
# Procedure: as §5, §6, §7, §4
# [5] = system: wild buckwheat (POLCO, Polygonum convolvulus); assay: Greenhouse postemergence herbicidal effect; assay type: in vivo; details: for Obs % visual injury / % visual injury, Obs: POLCO
# Procedure: as §5, §6, §7, §4
# [6] = system: wild mustard (SINAR, Sinapis arvensis); assay: Greenhouse postemergence herbicidal effect; assay type: in vivo
# Procedure: as §5, §6, §7, §4
# [7] = system: wild chamomile (MATCH, Matricaria chamomilla); assay: Greenhouse postemergence herbicidal effect; assay type: in vivo
# Procedure: as §5, §6, §7, §4
# [8] = system: winter rape (BRSNW, Brassica napus); assay: Greenhouse postemergence herbicidal effect; assay type: in vivo
# Procedure: as §5, §6, §7, §4
# [9] = system: Canadian thistle (CIRAR, Cirsium arvense); assay: Greenhouse postemergence herbicidal effect; assay type: in vivo
# Procedure: as §5, §6, §7, §4
molecule,measurement,setting,value
"COc1nn(C(=O)NS(=O)(=O)c2c(C(=O)O)csc2C)c(=O)n1C [Thiencarbazone, thiencarbazone]",% visual injury,[1]; Thiencarbazone 5 g/ha,60%
same,% visual injury Obs,[1]; Thiencarbazone 10 g/ha,83%
same,% visual injury,[2]; Thiencarbazone 5 g/ha,25%
same,% visual injury Obs,[2]; Thiencarbazone 10 g/ha,45%
same,% visual injury,spring barley (HORVS); in vivo,0%
same,% visual injury Obs,spring barley (HORVS); in vivo,8%
same,% visual injury,spring wheat (TRZAS); in vivo,0%
same,% visual injury Obs,spring wheat (TRZAS); in vivo,0%
same,% visual injury,[3]; Thiencarbazone 5 g/ha,53%
same,% visual injury,[4]; Thiencarbazone 5 g/ha,83%
same,% visual injury Obs,[4]; Thiencarbazone 10 g/ha,98%
same,% visual injury,[5]; Thiencarbazone 5 g/ha,89%
same,% visual injury Obs,[5]; Thiencarbazone 10 g/ha,95%
same,% visual injury,[6]; Thiencarbazone 5 g/ha,95%
same,% visual injury Obs,[6]; Thiencarbazone 10 g/ha,90%
same,% visual injury,[7]; Thiencarbazone 5 g/ha,55%
same,% visual injury Obs,[7]; Thiencarbazone 10 g/ha,80%
same,% visual injury,[8]; Thiencarbazone 5 g/ha,97%
same,% visual injury Obs,[8]; Thiencarbazone 10 g/ha,98%
same,% visual injury,[9]; Thiencarbazone 5 g/ha,10%
same,% visual injury Obs,[9]; Thiencarbazone 10 g/ha,45%
"Cc1ccn2nc(S(=O)(=O)Nc3c(F)cccc3F)nc2n1 [Flumetsulam, flumetsulam]",% visual injury Obs,[1]; Flumetsulam 4.375 g/ha,45%
same,% visual injury Obs,[2]; Flumetsulam 4.375 g/ha,5%
same,% visual injury Obs,[3]; Flumetsulam 4.375 g/ha,0%
same,% visual injury Obs,[4]; Flumetsulam 4.375 g/ha,98%
same,% visual injury Obs,[5]; Flumetsulam 4.375 g/ha,5%
same,% visual injury Obs,[6]; Flumetsulam 4.375 g/ha,50%
same,% visual injury Obs,[7]; Flumetsulam 4.375 g/ha,83%
same,% visual injury Obs,[8]; Flumetsulam 4.375 g/ha,40%
same,% visual injury Obs,[9]; Flumetsulam 4.375 g/ha,5%
"Cc1cnc(C2=NC(C)(C(C)C)C(=O)N2)c(C(=O)O)c1 (centres unmarked) [Imazapic, imazapic]",Obs % visual injury,"[1]; CHEAL, Imazapic 35 g/ha",78%
same,Obs % visual injury,"[2]; KCHSC, Imazapic 35 g/ha",80%
same,Obs % visual injury,"[3]; SASKR, Imazapic 35 g/ha",35%
same,Obs % visual injury,"[4]; AMARE, Imazapic 35 g/ha",100%
same,Obs % visual injury,[5]; Imazapic 35 g/ha,63%
same,Obs % visual injury,"[6]; SINAR, Imazapic 35 g/ha",91%
same,Obs % visual injury,"[7]; MATCH, Imazapic 35 g/ha",68%
same,Obs % visual injury,"[8]; BRSNW, Imazapic 35 g/ha",98%
same,Obs % visual injury,"[9]; CIRAR, Imazapic 35 g/ha",68%
"COc1nn(C(=O)NS(=O)(=O)c2ccccc2OC(F)(F)F)c(=O)n1C [Flucarbazone, flucarbazone]","% visual injury, Obs","[1]; CHEAL, Flurcarbazone 30 g/ha",10%
same,pest or weed control at 30 g/ha,"[2]; Bassia scoparia, post-emergence, KCHSC, Flurcarbazone 30 g/ha, read-out: % visual injury, Obs",25%
same,"% visual injury, Obs","[4]; AMARE, Flurcarbazone 30 g/ha",98%
same,"% visual injury, Obs",[5]; Flurcarbazone 30 g/ha,88%
same,"% visual injury, Obs","[6]; SINAR, Flurcarbazone 30 g/ha",88%
same,"% visual injury, Obs","[7]; MATCH, Flurcarbazone 30 g/ha",18%
same,"% visual injury, Obs","[8]; BRSNW, Flurcarbazone 30 g/ha",83%
same,pest or weed control at 30 g/ha,"[9]; Cirsium arvense, post-emergence, CIRAR, Flurcarbazone 30 g/ha, read-out: % visual injury, Obs",28%
"COc1nc(C)nc(NC(=O)NS(=O)(=O)c2ccccc2C(=O)O)n1 [Metsulfuron, metsulfuron]","% visual injury, Obs","[1]; CHEAL, Metsulfuron 3 g/ha",98%
same,"% visual injury, Obs","[2]; KCHSC, Metsulfuron 3 g/ha",75%
same,"% visual injury, Obs","[4]; AMARE, Metsulfuron 3 g/ha",100%
same,"% visual injury, Obs",[5]; Metsulfuron 3 g/ha,85%
same,"% visual injury, Obs","[6]; SINAR, Metsulfuron 3 g/ha",88%
same,"% visual injury, Obs","[7]; MATCH, Metsulfuron 3 g/ha",96%
same,"% visual injury, Obs","[8]; BRSNW, Metsulfuron 3 g/ha",90%
same,"% visual injury, Obs","[9]; CIRAR, Metsulfuron 3 g/ha",85%
COc1cc(OC)nc(Oc2cccc(Oc3nc(OC)cc(OC)n3)c2C(=O)O)n1 [Bispyrabac],% visual injury Obs,[1]; Bispyrabac 20 g/ha,0%
same,% visual injury Obs,[2]; Bispyrabac 20 g/ha,10%
same,% visual injury Obs,spring barley (HORVS); Bispyrabac 20 g/ha,13%
same,% visual injury Obs,spring wheat (TRZAS); Bispyrabac 20 g/ha,0%
same,% visual injury Obs,[4]; Bispyrabac 20 g/ha,100%
same,% visual injury Obs,[5]; Bispyrabac 20 g/ha,96%
same,% visual injury Obs,[6]; Bispyrabac 20 g/ha,96%
same,% visual injury Obs,[7]; Bispyrabac 20 g/ha,23%
same,% visual injury Obs,[8]; Bispyrabac 20 g/ha,100%
same,% visual injury Obs,[9]; Bispyrabac 20 g/ha,68%
"CCc1cnc(C2=NC(C)(C(C)C)C(=O)N2)c(C(=O)O)c1 (centres unmarked) [Imazethapyr, imazethapyr]","% visual injury, Obs",[1]; 35 g/ha,28%
same,pest or weed control at 35 g/ha,"[2]; Bassia scoparia, post-emergence, 35 g/ha, read-out: % visual injury, Obs",53%
same,"% visual injury, Obs",[3]; 35 g/ha,40%
same,"% visual injury, Obs",[7]; 35 g/ha,18%
same,pest or weed control at 35 g/ha,"[9]; Cirsium arvense, post-emergence, 35 g/ha, read-out: % visual injury, Obs",40%
iodosulfuron,"% visual injury, Obs","[1]; CHEAL, Iodosulfuron 33.75 g/ha",90%
same,"% visual injury, Obs","[2]; KCHSC, Iodosulfuron 33.75 g/ha",70%
same,"% visual injury, Obs","spring barley (HORVS); HORVS, Iodosulfuron 33.75 g/ha",0%
same,"% visual injury, Obs","spring wheat (TRZAS); TRZAS, Iodosulfuron 33.75 g/ha",0%
same,"% visual injury, Obs","[4]; AMARE, Iodosulfuron 33.75 g/ha",98%
same,"% visual injury, Obs",[5]; Iodosulfuron 33.75 g/ha,85%
same,"% visual injury, Obs","[6]; SINAR, Iodosulfuron 33.75 g/ha",100%
same,"% visual injury, Obs","[7]; MATCH, Iodosulfuron 33.75 g/ha",85%
same,"% visual injury, Obs","[8]; BRSNW, Iodosulfuron 33.75 g/ha",98%
same,"% visual injury, Obs","[9]; CIRAR, Iodosulfuron 33.75 g/ha",85%
mesosulfuron,"% visual injury, Obs","[1]; CHEAL, Mesosulfuron 9 g/ha",48%
same,% visual injury,[1]; Mesosulfuron 3 g/ha,30%
same,"% visual injury, Obs","[2]; KCHSC, Mesosulfuron 9 g/ha",13%
same,% visual injury,[2]; Mesosulfuron 3 g/ha,0%
same,% visual injury,[3]; Mesosulfuron 3 g/ha,15%
same,"% visual injury, Obs","[4]; AMARE, Mesosulfuron 9 g/ha",100%
same,% visual injury,[4]; Mesosulfuron 3 g/ha,78%
same,% visual injury,[5]; Mesosulfuron 3 g/ha,20%
same,Obs % visual injury,[5]; Mesosulfuron 3 g/ha,3%
same,"% visual injury, Obs",[5]; Mesosulfuron 9 g/ha,28%
same,% visual injury,[6]; Mesosulfuron 3 g/ha,98%
same,"% visual injury, Obs","[6]; SINAR, Mesosulfuron 9 g/ha",94%
same,Obs % visual injury,"[7]; MATCH, Mesosulfuron 3 g/ha",10%
same,"% visual injury, Obs","[7]; MATCH, Mesosulfuron 9 g/ha",45%
same,% visual injury,[7]; Mesosulfuron 3 g/ha,15%
same,"% visual injury, Obs","[8]; BRSNW, Mesosulfuron 9 g/ha",95%
same,% visual injury,[8]; Mesosulfuron 3 g/ha,100%
same,"% visual injury, Obs","[9]; CIRAR, Mesosulfuron 9 g/ha",73%
same,% visual injury,[9]; Mesosulfuron 3 g/ha,78%
"COc1nc(C)nc(N(C)C(=O)NS(=O)(=O)c2ccccc2C(=O)O)n1 [Tribenuron, tribenuron]","% visual injury, Obs","[1]; CHEAL, Tribenuron 15 g/ha",96%
same,"% visual injury, Obs","[2]; KCHSC, Tribenuron 15 g/ha",50%
same,"% visual injury, Obs","[4]; AMARE, Tribenuron 15 g/ha",100%
same,"% visual injury, Obs",[5]; Tribenuron 15 g/ha,78%
same,"% visual injury, Obs","[6]; SINAR, Tribenuron 15 g/ha",95%
same,"% visual injury, Obs","[7]; MATCH, Tribenuron 15 g/ha",87%
same,"% visual injury, Obs","[8]; BRSNW, Tribenuron 15 g/ha",99%
same,"% visual injury, Obs","[9]; CIRAR, Tribenuron 15 g/ha",89%
